Test results published in PMC9686139, “Furanoditerpenes from Spongia (Spongia) tubulifera Display Mitochondrial-Mediated Neuroprotective Effects by Targeting Cyclophilin D” (ACS Chemical Neuroscience, 2022).

Legend:
SH-SY5Y cells [1] = assay: Cell viability in H2O2 oxidative stress model, MTT assay; type: cell-based, human; settings: 150 μM H2O2, 6 h; 0.001-1 μM
Description: First, the capacity of 1–5 to improve cell survival under oxidative stress conditions was determined with the MTT assay (Figure 2). […] When cells were injured with the oxidant specie, a decrease in the cell viability of 23.6 ± 3.5% (p < 0.05) was observed.
Figure 2 Effect of compounds on the cell viability of SH-SY5Y cells. Compounds were added to human neuroblastoma cells for 6 h with and without 150 μM H2O2, and cell viability was evaluated with the MTT assay. Results of (a) compound 1, (b) compound 2, (c) compound 3, (d) compound 4, and (e) compound 5. Vitamin E (Vit E) at 25 μM was used as a positive control in oxidative stress assays. Mean ± standard error of the mean (SEM) of three experiments performed in triplicate. Data expressed as the percentage of control cells, compared by one-way analysis of variance (ANOVA) and Dunnett’s tests. ^#p < 0.05 compared to untreated control cells. *p < 0.05 and **p < 0.01 compared to cells treated with H2O2 alone. […]
The ability of compounds to protect cell viability from H2O2 was evaluated with 3-(4,5-dimethylthiazol-2-yl)-2,5-diphenyltetrazolium bromide (MTT) test. […] The absorbance of formazan crystals was measured at 595 nm with a plate reader. Saponin at 40 mg/mL was used as the death control, and its absorbance value was subtracted from the other data.

SH-SY5Y cells [2] = assay: Mitochondrial membrane potential (ΔΨm), TMRM dye; type: cell-based, human; settings: 150 μM H2O2, 6 h; compound 0.001 μM; percentage of control cells
Description: Since mitochondria are key players in neurodegeneration, acting as main producers and targets of ROS,[16] mitochondrial function was determined by analyzing the mitochondrial membrane potential (ΔΨm) with the fluorescent dye tetramethylrhodamine methyl ester (TMRM).
Figure 3 Effect of furanoditerpenes on ΔΨm of human neuroblastoma cells. Cells were treated for 6 h with S. tubulifera metabolites with and without 150 μM H2O2, and ΔΨm was determined with the TMRM dye. (a) Compound 1, (b) compound 2, (c) compound 3, (d) compound 4, and (e) compound 5 effects. Vitamin E (Vit E) at 25 μM was used as a positive control in oxidative stress assays. Data expressed as the percentage of control cells. Mean ± SEM of three experiments performed in triplicate. Statistical differences determined by one-way ANOVA and Dunnett’s tests. ^#p < 0.05 compared to untreated control cells. *p < 0.05, **p < 0.01, and ***p < 0.01 compared to cells treated with H2O2 alone.
To determine the neuroprotective effects of compounds, SH-SY5Y cells were seeded in 384-well plates at a density of 2.5 × 10^4 cells per well. After 24 h, cells were treated with the metabolites at nontoxic concentrations (0.001–1 μM) and 150 μM H2O2 for 6 h. […]
The effects of compounds in ΔΨm were analyzed with the fluorescent dye TMRM. […] The fluorescence was read in a plate reader at 535 nm excitation and 590 nm emission. […]

SH-SY5Y cells [3] = assay: ROS intracellular levels, carboxy-H2DCFDA; type: cell-based, human; settings: for effect on ROS content: cotreatment with 150 μM H2O2, 6 h
Description: Next, the capacity of S. tubulifera metabolites to decrease ROS intracellular levels was evaluated (Figure 4). […] Regarding the oxidative stress model, H2O2 augmented the levels of oxidant molecules up to 125.1 ± 2.4% (p < 0.01) and the known antioxidant Vit E, used as a positive control, induced a reduction in ROS release of 24% with respect to cells treated only with H2O2 (p < 0.05).
Figure 4 ROS intracellular levels after treatment with compounds. Furanoditerpenes were added for 6 h in the absence and presence of 150 μM H2O2. Then, the ROS content was measured with the fluorescent dye 5-(and-6)-carboxy-2′,7′-dichlorodihydrofluorescein diacetate (carboxy-H2DCFDA). Results from (a) 1, (b) 2, (c) 3, (d) 4, and (e) 5. Vitamin E (Vit E) at 25 μM was used as a positive control. Data expressed as the percentage of untreated control cells. Mean ± SEM of three experiments performed in triplicate. Statistical differences determined by one-way ANOVA test followed by Dunnett’s post hoc test. ^##p < 0.01 compared to control cells. *p < 0.05, **p < 0.01, and ***p < 0.01 compared to H2O2 control.
(§1) For these experiments, cells were seeded in 384-well plates and treated as described above. All of the assays were carried out as previously described.[15]
The fluorescent dye 5-(and-6)-carboxy-2′,7′-dichlorodihydrofluorescein diacetate (carboxy-H2DCFDA) was used to evaluate ROS levels. After treatment with compounds and H2O2, cells were washed twice with serum-free medium. Next, cells were loaded with 20 μM carboxy-H2DCFDA dissolved in serum-free medium, and the plate was incubated for 1 h at 37 °C and 300 rpm. Then, 100 μL of PBS were added to each well for 30 min at 37 °C and 300 rpm. After this incubation, the fluorescence was read at […].

SH-SY5Y cells [4] = assay: GSH content, Thiol Tracker Violet; type: cell-based, human
Description: To confirm the antioxidant properties of S. tubulifera compounds, the levels of the most important nonenzymatic antioxidant of cells, glutathione (GSH), were assessed. […] Regarding diterpene 2, an increase in the nonenzymatic antioxidant was observed when cells were cotreated with H2O2 and this compound at 0.001 and 1 μM (p < 0.05) (Figure 5b). No effects were found after the addition of 3 (Figure 5c), but 4 and 5 presented interesting results (Figure 5d,e).
Figure 5 Effect of S. tubulifera metabolites in the GSH content of human neuroblastoma cells. SH-SY5Y cells were treated with compounds for 6 h with and without 150 μM H2O2. GSH levels were monitored with Thiol Tracker Violet dye. (a) Compound 1, (b) compound 2, (c) compound 3, (d) compound 4, and (e) compound 5 results. Vitamin E (Vit E) at 25 μM was used as a positive control. Mean ± SEM of three experiments performed in triplicate. Data presented as the percentage of untreated control cells and compared by one-way ANOVA and Dunnett’s tests. ^##p < 0.01 compared to control cells. *p < 0.05 compared to cells treated with H2O2 alone.
as §1
Thiol Tracker Violet was used to measure intracellular GSH levels, following the manufacturer’s instructions. Briefly, human neuroblastoma cells were rinsed twice with PBS and the fluorescence dye at 10 μM was added. The plate was incubated for 30 min at 37 °C and 300 rpm, and the fluorescence was measured at 404 nm excitation and 526 nm emission in a plate reader. All experiments were performed three independent times in triplicate.

human cancer cell lines = system: human cancer cell lines; design: method as in PMID 31315183; settings: previous studies; cited from earlier work
CypD = CypD expression by Western blot; settings: compound 0.001 μM + 150 μM H2O2, 6 h; % of H2O2 control cells
Description: (b) CypD expression after treatment with S. tubulifera metabolites. (c) Effect of compounds on the CypD expression under oxidative stress conditions. […] Protein band expression was normalized by actin levels. Results are mean ± SEM of three replicates carried out in duplicate. Data expressed as the percentage of untreated control cells and H2O2 control. Values compared by one-way ANOVA and Dunnett’s tests. ^#p < 0.05 and ^##p < 0.01 compared to control cells. *p < 0.05 and **p < 0.01 compared to cells treated with H2O2 alone.
In this context, the expression of this protein was analyzed after treatment with compounds. CypD cytosolic levels were evaluated after treatment with 1–5 alone for 6 h and after the coaddition of diterpenes and H2O2 to get a complete insight into diterpene mitochondria-related effects.
SH-SY5Y cells were cultured in 12-well plates at 1 × 10^6 cells per well and allowed to settle down for 24 h.
Cells were washed twice with ice-cold PBS, and a hypotonic solution was added (20 mM tris–HCl pH 7.4, 10 mM NaCl, and 3 mM MgCl2, containing phosphatase and protease inhibitor cocktail). Cells were incubated for 15 min on ice and centrifuged at 3000 rpm and 4 °C for 15 min. The supernatant was collected as the cytosolic fraction, and protein concentration was quantified with the Direct Detect instrument (Merck Millipore, Darmstadt, Germany).[15]
Electrophoresis was resolved in 4–20% sodium dodecyl sulfate polyacrylamide gels (Biorad, Hercules, CA), containing 15 μg of cytosolic protein from each sample. The Trans-Blot semidry transfer cell (Biorad) was used to transfer proteins to poly(vinylidene difluoride) (PVDF) membranes (Merck Millipore). Snap i.d. system (Merck Millipore) was used for membrane blocking and antibody incubation. […] Immunoreactive bands were detected with Supersignal West Pico Luminiscent Substrate and Supersignal West Femto Maximum Sensitivity Substrate. Diversity GeneSnap system and software (Syngene, Cambridge, U.K.) were used for protein band detection. Experiments were performed three independent times in duplicate.

CypA = CypA expression by Western blot; settings: 0.001 μM, 6 h; physiological and oxidative stress (150 μM H2O2) conditions
Description: (§2) Human neuroblastoma cells were treated with compounds at 0.001 μM for 6 h, and Cyps expression was determined by Western blot (Figure 10). […] SH-SY5Y cells were treated with 1–5 at 0.001 μM for 6 h, and their effects on Cyps expression were determined by Western blot. […] Protein band expression was normalized by actin levels. Results expressed as the percentage of untreated control cells or as the percentage of H2O2 control. Mean ± SEM of three replicates carried out in duplicate. Statistical differences determined by one-way ANOVA and Dunnett’s tests. ^#p < 0.05 and ^##p < 0.01 compared to control cells. *p < 0.05, **p < 0.01, and ***p < 0.01 compared to cells treated with H2O2 alone. […]
(§3) Cells were washed twice with ice-cold PBS, and a hypotonic solution was added (20 mM tris–HCl pH 7.4, 10 mM NaCl, and 3 mM MgCl2, containing phosphatase and protease inhibitor cocktail). […] The supernatant was collected as the cytosolic fraction, and protein concentration was quantified with the Direct Detect instrument (Merck Millipore, Darmstadt, Germany).[15]
(§4) Electrophoresis was resolved in 4–20% sodium dodecyl sulfate polyacrylamide gels (Biorad, Hercules, CA), containing 15 μg of cytosolic protein from each sample. […] Immunoreactive bands were detected with Supersignal West Pico Luminiscent Substrate and Supersignal West Femto Maximum Sensitivity Substrate. […]

human CypD = human CypD (Homo sapiens, UniProt P30405); assay: Surface plasmon resonance binding to immobilized CypD; settings: for selectivity between CypD and CypA (KD values): CypD versus CypA; for kon: read-out: ka, CypD
human CypD, sequence (P30405 30-207): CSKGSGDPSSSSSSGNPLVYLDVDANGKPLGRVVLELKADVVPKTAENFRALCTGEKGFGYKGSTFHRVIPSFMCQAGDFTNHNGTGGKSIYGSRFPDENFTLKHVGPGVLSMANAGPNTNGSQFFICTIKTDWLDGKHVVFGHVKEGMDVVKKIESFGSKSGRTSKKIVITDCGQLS
Description: With this objective, surface plasmon resonance (SPR) experiments were performed. CypD was immobilized in the sensor surface as a ligand, and 1–5 were injected as analytes. […] For immobilization, amine groups were activated with 1-ethyl-3-(3-dimethylaminopropyl)carbodiimide hydrochloride (EDC) and N-hydroxysuccinimide (NHS) and 50 μg/mL of human CypD dissolved in 5 mM sodium acetate (pH 4.5) was added. […] All of the assays were carried out with phosphate-buffered saline (PBS)—0.05% Tween (pH 7.2) as the running buffer, with a flow rate of 20 μL/min at 24 °C.
The left panels present association curves obtained by the addition of compounds over immobilized CypD and subtraction of their respective solvent control. The right panels show fitting curves for equilibrium binding. Representative graphs of one independent replicate. […] All injections were performed using PBS, 0.05% Tween (pH 7.2) as the running buffer. Kinetic equilibrium dissociation constants (KD) and fitting curves were obtained with TraceDrawer software.
(§5) SPR measurements were performed using the MP-SPR Navi 210A VASA instrument with SPR Navi Control software (BioNavis, Tampere, Finland). All of the analyses were carried out in three-dimensional (3D) carboxymethyl dextran hydrogel-coated (CMD-3DM) sensors (BioNavis). PBS, 0.05% Tween (pH 7.2) was used as the running buffer for sensor activation, protein immobilization, and analyte injection. All buffers were degassed and filtered by 0.22 μm before use. The flow rate and temperature were set at 20 μL/min and 24 °C, respectively. A commercial Amine Coupling Kit (Xantec bioanalytics GmbH, Düsseldorf, Germany) was used for sensor activation and Cyps immobilization. The chip surface was preconditioned with 2 M NaCl and 0.01 M NaOH. Then, the surface was activated by the addition of 0.2 M 1-ethyl-3-(3-dimethylaminopropyl)carbodiimide hydrochloride (EDC) and 0.05 M N-hydroxysuccinimide (NHS). After activation, 50 μg/mL of CypA or CypD dissolved in 5 mM sodium acetate buffer (pH 4.5) were injected for immobilization on the sensor surface. […] Compound injections were performed in serial mode, and the reference channel signal was subtracted from the analyte sensorgram. Data were processed with MP-SPR Navi Data Viewer (BioNavis), and KD values were obtained using the 1:1 Langmuir model with mass transport considerations of TraceDrawer software (RidgeView Instruments Ab, Uppsala, Sweden). All of the experiments were performed three independent times.

Human CypA = Human CypA (Homo sapiens, UniProt P62937); assay: Surface plasmon resonance binding to immobilized CypA; settings: for Kd: CypA, SPR, 1:1 Langmuir model, PBS-T pH 7.2, 24 °C; for kon: read-out: ka, CypA
Human CypA, sequence (P62937 whole entry): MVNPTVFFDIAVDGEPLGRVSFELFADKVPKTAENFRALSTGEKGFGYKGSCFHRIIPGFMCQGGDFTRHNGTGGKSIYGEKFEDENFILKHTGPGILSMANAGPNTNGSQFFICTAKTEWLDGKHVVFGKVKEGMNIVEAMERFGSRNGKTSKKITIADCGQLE
Description: The protein was immobilized on the sensor surface by amino coupling, as described above (Figure S7), and compounds at several concentrations were added. The same conditions set for CypD were used for CypA experiments, with a flow rate of 20 μL/min and PBS-T (pH 7.2) as the running buffer.
Figure 9 Binding of compounds to CypA measured by surface plasmon resonance. The left panels present association curves obtained by the addition of compounds over immobilized CypA and subtraction of their respective vehicle signal. The right panels show fitting curves for equilibrium binding. Representative graphs of one independent replicate. […] Kinetic equilibrium dissociation constants (KD) and fitting curves were obtained with TraceDrawer software.
as §5

CypC = CypC expression by Western blot; settings: 0.001 μM + 150 μM H2O2, 6 h; % of H2O2 control
Description: as §2, §3, §4

CypB = settings: compound alone 0.001 μM, 6 h; % of untreated control cells
Description: Before starting the experiments, antibody specificity was determined due to the conserved structures along Cyps. […] Human neuroblastoma cells were treated with compounds at 0.001 μM for 6 h, and Cyps expression was determined by Western blot (Figure 10).
SH-SY5Y cells were treated with 1–5 at 0.001 μM for 6 h, and their effects on Cyps expression were determined by Western blot. […] Protein band expression was normalized by actin levels. Results expressed as the percentage of untreated control cells or as the percentage of H2O2 control. Mean ± SEM of three replicates carried out in duplicate. Statistical differences determined by one-way ANOVA and Dunnett’s tests. ^#p < 0.05 and ^##p < 0.01 compared to control cells. *p < 0.05, **p < 0.01, and ***p < 0.01 compared to cells treated with H2O2 alone.
SH-SY5Y cells were cultured in 12-well plates at 1 × 10^6 cells per well and allowed to settle down for 24 h. Then, cells were treated with compounds at 0.001 μM for 6 h and oxidative damage was induced with 150 μM H2O2.
Cells were washed twice with ice-cold PBS, and a hypotonic solution was added (20 mM tris–HCl pH 7.4, 10 mM NaCl, and 3 mM MgCl2, containing phosphatase and protease inhibitor cocktail). […] The supernatant was collected as the cytosolic fraction, and protein concentration was quantified with the Direct Detect instrument (Merck Millipore, Darmstadt, Germany).[15] […]

[5] = design: method as in doi:10.1246/cl.1987.1687; settings: previous studies; cited from earlier work
[6] = system: mitochondrial permeability transition pore (mPTP); assay: mPTP opening, calcein-AM/CoCl2 flow cytometry; settings: 0.001 μM, 15 min pretreatment, TBHP 3 min
Description: SH-SY5Y cells were treated for 15 min with 1–5, and 1 mM tert-butyl hydroperoxide (TBHP) was used to open the pore. Cells were loaded with calcein-AM, which accumulates in cytosol and cell compartments and with CoCl2 that quenches cytosolic fluorescence but not the mitochondrial signal.[17] Then, fluorescence was analyzed by flow cytometry (Figure 6a). […] (a) Analysis of mPTP opening. Cells were treated with compounds at 0.001 μM for 15 min, and pore opening was induced with 1 mM TBHP. Calcein-AM and CoCl2 were used to measure mPTP aperture by flow cytometry. […] Values are presented as the percentage of control cells. Data are mean ± SEM of three independent experiments. Statistical differences determined by one-way ANOVA and Dunnett’s tests. ^###p < 0.001 compared to control cells. *p < 0.05 and **p < 0.01 compared to cells treated only with TBHP.
The inhibition of mPTP by compounds was determined with the MitoProbe Transition Pore Assay Kit, as previously described.[21] For this assay, cells were seeded in 12-well plates at 5 × 10^5 cells per well and allowed to grow for 24 h. Then, SH-SY5Y cells were detached with Detachin solution (Genlatis, San Diego), washed with PBS, and resuspended in PBS buffer with 0.6 mM CaCl2. Cells were loaded with 0.01 μM calcein-AM and incubated at 37 °C for 15 min. Then, 0.4 mM CoCl2 and compounds at 0.001 μM were added and cells were incubated for 15 min at 37 °C. After this incubation, cells were centrifuged, resuspended in 100 μL of calcium-free PBS, and kept on ice. Finally, TBHP at 1 mM was added for 3 min to the cells to induce the pore opening. […] The fluorescence of 10 000 events was analyzed with IDEAS Application vs 6.0 (Amnis Corporation, Luminex Corp).

Structure (SMILES) | cytotoxicity (human cancer cell lines) | CypD expression under oxidative damage (CypD) | selectivity between CypD and CypA (KD values) (human CypD; SPR) | Kd (Human CypA) | kon (Human CypA) | Kd (human CypD) | kon (human CypD) | other results
CC1(C)[C@@H](O)C(=O)C[C@]2(C)[C@H]3CCc4cocc4[C@]3(C)CC[C@@H]12 [Compound 1] | weak cytotoxicity | about 54% | selective toward CypA | 15.2 ± 1.31 µM | 682 M⁻¹ s⁻¹ |  |  | protection of cell viability from H2O2 damage (SH-SY5Y cells [1]): not able to protect; ΔΨm (SH-SY5Y cells [2]): 96.7 ± 5.4%; effect on ROS content (SH-SY5Y cells [3]; all four concentrations 0.001-1 μM): significant decrease; effect on GSH content (SH-SY5Y cells [4]; compound alone and with 150 μM H2O2, 6 h): did not affected the GSH content; effect on CypA expression (CypA): decreased its expression; KD (kinetic equilibrium dissociation constant), CypD (human CypD; SPR, 1:1 Langmuir model, PBS-0.05% Tween pH 7.2, 24 °C): No binding; ka, CypD (human CypD; SPR, Table S1): No binding; kd, CypD (human CypD; SPR, Table S1): No binding; binding to CypD (human CypD; SPR, up to 50 μM): No binding; SPR signal, CypA (Human CypA; at 50 μM): 9.9 mdeg
CC1(C)C(=O)C(O)=C[C@]2(C)[C@H]3CCc4cocc4[C@]3(C)CC[C@@H]12 [Compound 2] |  | 37.9 ± 17.9% | selectivity toward the mitochondrial isoform | 14.7 ± 1.08 µM | 1320 M⁻¹ s⁻¹ | 2.53 ± 0.006 µM | 10000 M⁻¹ s⁻¹ | ROS levels (SH-SY5Y cells [3]; 150 μM H2O2, 6 h, compound 0.1 μM, percentage of untreated control cells): 89.9 ± 5.7%; effect on ROS content (SH-SY5Y cells [3]; at 0.001, 0.1 and 1 μM): reduced the levels; effect on GSH content (SH-SY5Y cells [4]; cotreated with 150 μM H2O2, 6 h, at 0.001 and 1 μM): increase; CypC expression under oxidative injury (CypC): 24.3 ± 2.9%
C[C@]12CC(=O)[C@H](O)[C@](C)(CO)[C@@H]1CC[C@@]1(C)c3cocc3CC[C@H]21 [Compound 4, epispongiadiol] | weak cytotoxicity | about 54% |  | 27.4 ± 3.68 µM | 861 M⁻¹ s⁻¹ | 30.4 ± 0.87 µM | 738 M⁻¹ s⁻¹ | CypB expression (CypB): 48.54 ± 11.4%; antiviral activity [5]: antiviral activity; inhibition of mPTP opening after oxidative injury [6]: able to inhibit mPTP opening
